TGI and GI50 data for four molecules are collected here from PubChem BioAssay (NCI).

Test systems include SN12C renal; SNB-75 CNS; SW-620 colon; MDA-MB-435; BT-549 breast; A549 NSCLC; SK-MEL-5 melanoma; M14 melanoma; NCI-H23 lung; OVCAR-3 ovarian.
What all share (assay): inhibition of tumour cell growth, NCI panel, 48 h

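Protocol summary: plate cells (96-well), add compound at 5 concentrations, incubate 48 h, interpolate endpoints linearly. Here, GI50 denotes the concentration required for 50% inhibition of growth. TGI: total growth inhibition.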 Where a SMILES comes first, the peptide text is derived from it. [ ]: non-standard residue; d: D form. The star is where a group is joined. ξ: configuration not given here. Propanoyl(3-(4-MeO-Ph)) = COc1ccc(CCC(=O)*)cc1; Thr(3ξ) = CC(O)[C@H](N)C(=O)O; dNMeL = CN[C@H](CC(C)C)C(=O)O; ξLac = CC(O)C(=O)O

Consider `COc1ccc(NCc2cnc3nc(N)nc(N)c3c2C)cc1`, for which the TGI in the assay on SN12C renal, in the assay on SNB-75 CNS, in the assay on SW-620 colon, in the assay on MDA-MB-435, in the assay on BT-549 breast and in the assay with A549 NSCLC was above 100 µM throughout. Moreover, the TGI with SK-MEL-5 melanoma, in the assay with M14 melanoma, in the assay with NCI-H23 lung and in the assay with OVCAR-3 ovarian was above 100 µM each time.
As to `O=[N+]([O-])c1ccc2nc(/C=C(\O)c3ccccc3)c(/C=C(\O)c3ccccc3)nc2c1`, the TGI is above 100 µM in the assay with SN12C renal; 32.1 µM in the assay with SNB-75 CNS; 61.4 µM with SW-620 colon; above 56.2 µM in the assay on MDA-MB-435; 62.1 µM in the assay with BT-549 breast; above 58.5 µM in the assay on A549 NSCLC. For the same molecule, the TGI was above 39.2 µM with SK-MEL-5 melanoma, above 67.3 µM in the assay with M14 melanoma, above 60.4 µM with NCI-H23 lung and 31.3 µM in the assay with OVCAR-3 ovarian. In addition, the GI50 with SW-620 colon was 6.11 µM.
With `COC(=O)[C@@H](NC(=O)[C@@H](CC(C)C)N(C)C(=O)[C@@H]1CCCN1C(=O)C(C)O)C(C)OC(=O)CCc1ccc(OC)cc1` (stereo partly specified) (H-[ξLac]P[dNMeL][Thr(3ξ)](Propanoyl(3-(4-MeO-Ph)))-OMe), the TGI with SN12C renal, in the assay with SNB-75 CNS, in the assay with SW-620 colon, in the assay with MDA-MB-435, with BT-549 breast and with A549 NSCLC was above 100 µM each time. Also, the TGI with SK-MEL-5 melanoma, in the assay on M14 melanoma, with NCI-H23 lung and with OVCAR-3 ovarian was above 100 µM throughout.
On to `CC(C)=CCCC1(Sc2ccccc2)C(=O)OCC1C=C(C)C` (stereo unspecified), for which the TGI was 46.1 µM in the assay on SN12C renal; above 100 µM with SNB-75 CNS; above 100 µM in the assay with SW-620 colon; above 100 µM with MDA-MB-435; above 100 µM with BT-549 breast; 78.1 µM in the assay with A549 NSCLC. Besides, the TGI is 36.7 µM with SK-MEL-5 melanoma, 52.1 µM with M14 melanoma, above 100 µM in the assay on NCI-H23 lung and 42.8 µM in the assay on OVCAR-3 ovarian.
